Source: ChEMBL document CHEMBL5244273, “Tuberculosis: An Overview of the Immunogenic Response, Disease Progression, and Medicinal Chemistry Efforts in the Last Decade toward the Development of Potential Drugs for Extensively Drug-Resistant Tuberculosis Strains” (J Med Chem, 2021)
Converted amounts (≈) assume the structure as drawn.

Tests used:
[1] = test system: Mycobacterium tuberculosis; assay: Antimycobacterial activity against multidrug resistant Mycobacterium tuberculosis H37Rv; format: functional
[2] = test system: Mycobacterium tuberculosis; assay: Antimycobacterial activity against extensively drug resistant Mycobacterium tuberculosis H37Rv; format: functional
[3] = test system: Mycobacterium tuberculosis; assay: Potentiation of ethionamide induced antibacterial activity against Mycobacterium tuberculosis W4-E1 harboring EthA Gly343Ala mutant expressing GFP incubated for 5 days by fluorescence based analysis; format: functional, organism-based
[4] = test system: Mycobacterium tuberculosis; assay: Antimycobacterial activity against rifampicin resistant Mycobacterium tuberculosis by broth dilution method; format: functional
[5] = test system: Mycobacterium tuberculosis; assay: Antimycobacterial activity against isoniazid and rifampicin resistant Mycobacterium tuberculosis by broth dilution method; format: functional
[6] = test system: Mycobacterium tuberculosis; assay: Antimycobacterial activity against isoniazid, rifampicin, amikacin and moxifloxacin resistant Mycobacterium tuberculosis by broth dilution method; format: functional

CC(=O)N1N=C(c2ccc3oc(-c4ccc(O)cc4)nc3c2)CC1c1cccs1 (configuration not stated)
MIC [1]: 3.12 µg/mL (≈ 7.73 µM) | MIC [2]: 12.5 µg/mL (≈ 31 µM)

O=C(CCC(F)(F)F)N1CCC(F)(c2ccnc(Cl)c2)CC1
EC50 [3]: < 1.3 µM

NC(=O)N1N=C(c2ccc3oc(N)nc3c2)CC1c1cccs1 (configuration not stated)
MIC [1]: 12.5 µg/mL (≈ 38.2 µM) | MIC [2]: 50 µg/mL (≈ 153 µM)

Cc1cc(-c2cn(C[C@@]3(C)Cn4cc([N+](=O)[O-])nc4O3)nn2)ccc1F
MIC [4]: 1 µg/mL (≈ 2.79 µM) | MIC [5]: 4 µg/mL (≈ 11.2 µM) | MIC [6]: 2 µg/mL (≈ 5.58 µM)

O=C(CCC(F)(F)F)N1CC(C2CCCCC2)C1
EC50 [3]: < 0.075 µM

O=C(CCC(F)(F)F)N1CCC(F)(c2ccnc(F)c2)CC1
EC50 [3]: < 1.3 µM

Cc1ccc(OCc2cn(C[C@@]3(C)Cn4cc([N+](=O)[O-])nc4O3)nn2)cc1
MIC [4]: 8 µg/mL (≈ 21.6 µM) | MIC [5]: 2 µg/mL (≈ 5.4 µM) | MIC [6]: 8 µg/mL (≈ 21.6 µM)

CC(=O)N1N=C(c2ccc3oc(N)nc3c2)CC1c1cccs1 (configuration not stated)
MIC [1]: 6.25 µg/mL (≈ 19.1 µM) | MIC [2]: 25 µg/mL (≈ 76.6 µM)

CC(=O)N1N=C(c2ccc3oc(NC(=O)c4ccccc4)nc3c2)CC1c1cccs1 (configuration not stated)
MIC [1]: 12.5 µg/mL (≈ 29 µM) | MIC [2]: 50 µg/mL (≈ 116 µM)

CCc1ccc(OCc2cn(C[C@@]3(C)Cn4cc([N+](=O)[O-])nc4O3)nn2)cc1
MIC [4]: 4 µg/mL (≈ 10.4 µM) | MIC [5]: 2 µg/mL (≈ 5.2 µM) | MIC [6]: 4 µg/mL (≈ 10.4 µM)

O=C(CCC(F)(F)F)N1CCC(F)(c2cncc(Cl)c2)CC1
EC50 [3]: < 1.3 µM

C[C@]1(Cn2cc(CN3CCOCC3)nn2)Cn2cc([N+](=O)[O-])nc2O1
MIC [4]: 2 µg/mL (≈ 5.72 µM) | MIC [5]: 2 µg/mL (≈ 5.72 µM) | MIC [6]: 2 µg/mL (≈ 5.72 µM)

Cc1cccc(OCc2cn(C[C@@]3(C)Cn4cc([N+](=O)[O-])nc4O3)nn2)c1
MIC [4]: 1 µg/mL (≈ 2.7 µM) | MIC [5]: 1 µg/mL (≈ 2.7 µM) | MIC [6]: 2 µg/mL (≈ 5.4 µM)

CC(=O)N1N=C(c2ccc3oc(NC(=O)CCl)nc3c2)CC1c1cccs1 (configuration not stated)
MIC [1]: 3.12 µg/mL (≈ 7.74 µM) | MIC [2]: 12.5 µg/mL (≈ 31 µM)

O=C(CCC(F)(F)F)N1CCC2(CC1)CC(Br)=NO2
EC50 [3]: < 0.14 µM

Cc1ccc(OCCc2cn(C[C@@]3(C)Cn4cc([N+](=O)[O-])nc4O3)nn2)cc1
MIC [4]: 1 µg/mL (≈ 2.6 µM) | MIC [5]: 0.25 µg/mL (≈ 0.65 µM) | MIC [6]: 0.25 µg/mL (≈ 0.65 µM)

Cc1ccc(SCc2cn(C[C@@]3(C)Cn4cc([N+](=O)[O-])nc4O3)nn2)cc1
MIC [4]: 0.25 µg/mL (≈ 0.647 µM) | MIC [5]: 0.5 µg/mL (≈ 1.29 µM) | MIC [6]: 2 µg/mL (≈ 5.18 µM)

C[C@]1(Cn2cc(-c3ccc(C(F)(F)F)cc3)nn2)Cn2cc([N+](=O)[O-])nc2O1
MIC [4]: 4 µg/mL (≈ 10.1 µM) | MIC [5]: 2 µg/mL (≈ 5.07 µM) | MIC [6]: 2 µg/mL (≈ 5.07 µM)

O=C(CCC(F)(F)F)N1CC(c2cccc(Cl)c2)C1
EC50 [3]: < 0.075 µM

O=C(CCC(F)(F)F)N1CCC(F)(c2cncc(C(F)(F)F)c2)CC1
EC50 [3]: < 1.3 µM

CC(=O)N1N=C(c2ccc3oc(S)nc3c2)CC1c1cccs1 (configuration not stated)
MIC [1]: 25 µg/mL (≈ 72.8 µM) | MIC [2]: > 100 µg/mL

C[C@]1(Cn2cc(-c3ccc(F)cc3)nn2)Cn2cc([N+](=O)[O-])nc2O1
MIC [4]: 2 µg/mL (≈ 5.81 µM) | MIC [5]: 2 µg/mL (≈ 5.81 µM) | MIC [6]: 2 µg/mL (≈ 5.81 µM)

O=C(CCC(F)(F)F)N1CCC(F)(c2cc(C(F)(F)F)ccn2)CC1
EC50 [3]: < 1.3 µM

COC1=NOC2(CCN(C(=O)CCCl)CC2)C1
EC50 [3]: < 0.14 µM

O=C(CCCl)N1CCC2(CC1)CC(C(F)(F)F)=NO2
EC50 [3]: < 0.14 µM

CCC1=NOC2(CCN(C(=O)CCC(F)(F)F)CC2)C1
EC50 [3]: < 0.14 µM

O=C(CCC(F)(F)F)N1CCC(c2ccnc(Cl)c2)CC1
EC50 [3]: < 1.3 µM

CCOC1=NOC2(CCN(C(=O)CCC(F)(F)F)CC2)C1
EC50 [3]: < 0.14 µM

O=C(CCC(F)(F)F)N1CCC2(CC1)CC(OCC(F)(F)F)=NO2
EC50 [3]: < 0.14 µM

O=C(CCC(F)(F)F)N1CCC(c2cnc(F)c(F)c2)CC1
EC50 [3]: < 1.3 µM

C[C@]1(Cn2cc(COc3cccc(F)c3)nn2)Cn2cc([N+](=O)[O-])nc2O1
MIC [4]: 2 µg/mL (≈ 5.34 µM) | MIC [5]: 2 µg/mL (≈ 5.34 µM) | MIC [6]: 2 µg/mL (≈ 5.34 µM)

CCCOC1=NOC2(CCN(C(=O)CCC(F)(F)F)CC2)C1
EC50 [3]: < 0.14 µM

CCCCCCOC1=NOC2(CCN(C(=O)CCC(F)(F)F)CC2)C1
EC50 [3]: < 0.14 µM

O=C(CCC(F)(F)F)N1CCC(c2ncc(F)cc2F)CC1
EC50 [3]: < 1.3 µM

C[C@]1(Cn2cc(-c3ccc(F)cc3F)nn2)Cn2cc([N+](=O)[O-])nc2O1
MIC [4]: 4 µg/mL (≈ 11 µM) | MIC [5]: 1 µg/mL (≈ 2.76 µM) | MIC [6]: 4 µg/mL (≈ 11 µM)

O=C(CCCC(F)(F)F)N1CCC(c2cncc(Cl)c2)CC1
EC50 [3]: < 1.3 µM

C[C@]1(Cn2cc(-c3ccc(OC(F)(F)F)cc3)nn2)Cn2cc([N+](=O)[O-])nc2O1
MIC [4]: 2 µg/mL (≈ 4.87 µM) | MIC [5]: 2 µg/mL (≈ 4.87 µM) | MIC [6]: 1 µg/mL (≈ 2.44 µM)

O=C(CCC(F)(F)F)N1CCC(c2cncc(Cl)c2)C1 (configuration not stated)
EC50 [3]: < 1.3 µM

O=C(CCC(F)(F)F)N1CCC(F)(c2cccnc2)CC1
EC50 [3]: < 1.3 µM

Cc1ccccc1OCc1cn(C[C@@]2(C)Cn3cc([N+](=O)[O-])nc3O2)nn1
MIC [4]: 1 µg/mL (≈ 2.7 µM) | MIC [5]: 1 µg/mL (≈ 2.7 µM) | MIC [6]: 1 µg/mL (≈ 2.7 µM)

O=C(CCC(F)(F)F)N1CCC(F)(c2ccnc(C(F)(F)F)c2)CC1
EC50 [3]: < 1.3 µM

O=C(CCC(F)(F)F)N1CCC2(CC1)CC(F)=NO2
EC50 [3]: < 0.14 µM

O=C(CCC(F)(F)F)N1CCC(c2cccc(C(F)(F)F)n2)CC1
EC50 [3]: < 1.3 µM

O=C(CCC(F)(F)F)N1CCC(c2cncc(C(F)(F)F)n2)CC1
EC50 [3]: < 1.3 µM

O=C(CCC(F)(F)F)N1CCC(c2cncc(F)c2)CC1
EC50 [3]: < 1.3 µM

C[C@]1(Cn2cc(COc3ccccc3F)nn2)Cn2cc([N+](=O)[O-])nc2O1
MIC [4]: 1 µg/mL (≈ 2.67 µM) | MIC [5]: 0.5 µg/mL (≈ 1.34 µM) | MIC [6]: 1 µg/mL (≈ 2.67 µM)

C[C@]1(Cn2cc(COc3ccc(Br)cc3)nn2)Cn2cc([N+](=O)[O-])nc2O1
MIC [4]: 0.12 µg/mL (≈ 0.276 µM) | MIC [5]: 0.12 µg/mL (≈ 0.276 µM) | MIC [6]: 0.25 µg/mL (≈ 0.574 µM)

O=C(CCC(F)(F)F)N1CCC(c2cncc(C(F)(F)F)c2)CC1
EC50 [3]: < 1.3 µM

O=C(CCC(F)(F)F)N1CCC(F)(c2ccc(F)nc2)CC1
EC50 [3]: < 1.3 µM

C[C@]1(Cn2cc(COc3cccc(Cl)c3)nn2)Cn2cc([N+](=O)[O-])nc2O1
MIC [4]: 2 µg/mL (≈ 5.12 µM) | MIC [5]: 2 µg/mL (≈ 5.12 µM) | MIC [6]: 4 µg/mL (≈ 10.2 µM)

O=C(CCC(F)(F)F)N1CCC(c2ccncc2F)CC1
EC50 [3]: < 1.3 µM

O=C(CCC(F)(F)F)N1CCC(c2ccc(F)nc2F)CC1
EC50 [3]: < 1.3 µM

C[C@]1(Cn2cc(-c3ccc(Oc4ccccc4)cc3)nn2)Cn2cc([N+](=O)[O-])nc2O1
MIC [4]: 1 µg/mL (≈ 2.39 µM) | MIC [5]: 1 µg/mL (≈ 2.39 µM) | MIC [6]: 1 µg/mL (≈ 2.39 µM)

CC(C)c1ccc(OCc2cn(C[C@@]3(C)Cn4cc([N+](=O)[O-])nc4O3)nn2)cc1
MIC [4]: 2 µg/mL (≈ 5.02 µM) | MIC [5]: 1 µg/mL (≈ 2.51 µM) | MIC [6]: 4 µg/mL (≈ 10 µM)

O=C(CCC(F)(F)F)N1CCC(c2ccc(F)cn2)CC1
EC50 [3]: < 1.3 µM

COc1ccc(C2CCN(C(=O)CCC(F)(F)F)CC2)cn1
EC50 [3]: < 1.3 µM

C[C@]1(Cn2cc(COc3ccc(OC(F)(F)F)cc3)nn2)Cn2cc([N+](=O)[O-])nc2O1
MIC [4]: 2 µg/mL (≈ 4.54 µM) | MIC [5]: 2 µg/mL (≈ 4.54 µM) | MIC [6]: 2 µg/mL (≈ 4.54 µM)

C[C@]1(Cn2cc(COc3ccc(C(F)(F)F)cc3)nn2)Cn2cc([N+](=O)[O-])nc2O1
MIC [4]: 4 µg/mL (≈ 9.43 µM) | MIC [5]: 4 µg/mL (≈ 9.43 µM) | MIC [6]: 4 µg/mL (≈ 9.43 µM)

O=C(CCC(F)(F)F)N1CCC(c2cc(C(F)(F)F)ccn2)CC1
EC50 [3]: < 1.3 µM

O=C(CCC(F)(F)F)N1CCC(c2ccnc(C(F)(F)F)c2)CC1
EC50 [3]: < 1.3 µM

CCCCCc1cn(C[C@@]2(C)Cn3cc([N+](=O)[O-])nc3O2)nn1
MIC [4]: 8 µg/mL (≈ 25 µM) | MIC [5]: 2 µg/mL (≈ 6.24 µM) | MIC [6]: 8 µg/mL (≈ 25 µM)

O=C(CCC(F)(F)F)N1CCC(c2cccc(Cl)n2)CC1
EC50 [3]: < 1.3 µM

O=C(CCC(F)(F)F)N1CC(c2ccc(F)cc2F)C1
EC50 [3]: < 0.075 µM

CC1=NOC2(CCN(C(=O)CCC(F)(F)F)CC2)C1
EC50 [3]: < 0.14 µM

O=C(CCC(F)(F)F)N1CCC(c2ccnc(F)c2)CC1
EC50 [3]: < 1.3 µM

COc1cccc(C(=O)Nc2nc3cc(C4=NN(C(C)=O)C(c5cccs5)C4)ccc3o2)c1 (configuration not stated)
MIC [1]: 3.12 µg/mL (≈ 6.78 µM) | MIC [2]: 12.5 µg/mL (≈ 27.1 µM)

O=C(CCC(F)(F)F)N1CC(c2cc(F)c(F)c(F)c2)C1
EC50 [3]: < 0.075 µM

O=C(CCC(F)(F)F)N1CCC(c2cncc(Cl)n2)CC1
EC50 [3]: < 1.3 µM

O=C(CCC(F)(F)F)N1CCC(F)(c2ccccn2)CC1
EC50 [3]: < 1.3 µM

Cc1cc(C2CCN(C(=O)CCC(F)(F)F)CC2)ccn1
EC50 [3]: < 1.3 µM

O=C(CCC(F)(F)F)N1CCC(c2ccc(F)nc2)CC1
EC50 [3]: < 1.3 µM

O=C(CCC(F)(F)F)N1CCC(c2cccc(F)n2)CC1
EC50 [3]: < 1.3 µM

CC(C)COC1=NOC2(CCN(C(=O)CCC(F)(F)F)CC2)C1
EC50 [3]: < 0.14 µM

C[C@]1(Cn2cc(COc3ccccn3)nn2)Cn2cc([N+](=O)[O-])nc2O1
MIC [4]: 0.5 µg/mL (≈ 1.4 µM) | MIC [5]: 0.25 µg/mL (≈ 0.7 µM) | MIC [6]: 0.5 µg/mL (≈ 1.4 µM)

N#CC1=NOC2(CCN(C(=O)CCC(F)(F)F)CC2)C1
EC50 [3]: < 0.14 µM

O=C(CCC(F)(F)F)N1CCC(c2cncc(Cl)c2)CC1
EC50 [3]: < 1.3 µM
